Results from the NIST ThermoML archive (doi:10.1021/je900599q).
Numbers after ± are expanded uncertainties.

Conditions: 298.2 K; 101.33 kPa; Liquid; Pycnometric method

SMILES: CO [methanol]
- mass density: 796 ± 1 kg/m3
